The assay concerns the target human mGluR5A (Homo sapiens, UniProt P41594). In words: mGluR5 FLIPR Assay. The assay is classed as cell-based. The note with it: positive modulator activity; HEK293 (ZF) cells with human mGluR5A and rat GLAST; Ca++ response to ~EC10 glutamate. On the procedure: HEK293 (ZF) cells stably transfected with human mGluR5A (pIRES neo) and the rat glutamate-aspartate transporter (GLAST; pIRES puro) are grown in a monolayer culture at 37° C. in 5% CO2 and fed with Minimum Essential Medium (MEM) supplemented with 10% dialysed fetal bovine serum. 24 hours prior to assay, cells are enzymatically dissociated from the culture flask (Trypsin, 0.25%), spun down (1000 rpm, 3 min), resuspended, and plated on Greiner black clear bottomed PDL-coated 384-well plates at a density of 30 thousand cells/well. […] Plates are incubated in dye at 37° C. in 5% CO2 for 60 minutes prior to delivery of test compounds in assay buffer. Test compounds are incubated with cells in the presence of dye for 10 minutes prior to being read on the FLIPR platform (Molecular Devices). A Ca^++ signal is induced in the assay plates via the delivery of an ˜EC10 concentration of the endogenous agonist 1-glutamate; images are acquired at 1 Hz for 100 seconds post-delivery of agonist stimulus. Positive modulator activity (i.e. the ability of test compounds to increase the Ca^++ response to a sub-maximal concentration of agonist) is normalized to a saturating concentration of a known mGluR5 PAM run in each assay plate. An EC50 concentration of test compounds is derived from 4-parameter logistic curve fits of transformed fluoresence data via proprietary software suite.

“And” between values parts separate entries of the source, which are not always exact repeats. Equal entries are not always repeated.

Sequence of human mGluR5A (P41594 21-1180 isoform P41594-2): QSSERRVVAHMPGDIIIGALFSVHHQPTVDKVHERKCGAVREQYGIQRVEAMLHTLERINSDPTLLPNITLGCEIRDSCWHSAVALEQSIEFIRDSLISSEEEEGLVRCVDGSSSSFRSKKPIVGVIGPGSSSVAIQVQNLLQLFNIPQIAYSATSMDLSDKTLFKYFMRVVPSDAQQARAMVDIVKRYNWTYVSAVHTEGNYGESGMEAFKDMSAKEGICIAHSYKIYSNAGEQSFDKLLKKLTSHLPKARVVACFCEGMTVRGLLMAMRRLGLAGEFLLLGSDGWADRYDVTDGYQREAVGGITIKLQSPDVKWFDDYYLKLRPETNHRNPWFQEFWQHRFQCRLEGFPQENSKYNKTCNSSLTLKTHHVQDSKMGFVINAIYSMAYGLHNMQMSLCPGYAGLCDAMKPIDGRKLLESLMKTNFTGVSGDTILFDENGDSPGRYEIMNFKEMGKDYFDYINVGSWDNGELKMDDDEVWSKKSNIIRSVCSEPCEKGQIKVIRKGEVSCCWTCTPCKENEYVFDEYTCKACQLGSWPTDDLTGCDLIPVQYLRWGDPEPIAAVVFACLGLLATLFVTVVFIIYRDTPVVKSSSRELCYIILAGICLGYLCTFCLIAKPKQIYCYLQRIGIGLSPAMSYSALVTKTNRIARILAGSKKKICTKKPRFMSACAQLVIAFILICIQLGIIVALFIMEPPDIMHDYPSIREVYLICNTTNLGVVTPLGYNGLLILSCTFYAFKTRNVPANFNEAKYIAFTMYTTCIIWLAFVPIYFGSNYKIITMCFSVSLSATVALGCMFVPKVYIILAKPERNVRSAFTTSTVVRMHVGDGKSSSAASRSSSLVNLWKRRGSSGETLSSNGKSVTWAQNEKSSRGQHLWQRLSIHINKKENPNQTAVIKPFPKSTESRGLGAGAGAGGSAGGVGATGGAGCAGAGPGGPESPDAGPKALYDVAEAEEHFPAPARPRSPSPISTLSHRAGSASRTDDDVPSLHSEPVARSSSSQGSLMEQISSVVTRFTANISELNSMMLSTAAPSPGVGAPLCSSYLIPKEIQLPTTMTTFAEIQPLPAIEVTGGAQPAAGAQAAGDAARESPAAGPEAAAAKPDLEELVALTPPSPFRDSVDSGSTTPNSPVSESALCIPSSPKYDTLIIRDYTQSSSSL

The compound `COc1cccc([C@H]2OC(=O)N[C@@H]2c2cccc(C#Cc3ccncc3)c2)c1` [Example 51] came in with an EC50 of less than 100 nM. Under `Cc1ccc([C@@H]2OC(=O)N[C@H]2c2cccc(C#Cc3ccccc3)c2)cc1C` (racemic) [Example 100, Trans-5-(3,4-dimethylphenyl)-4-(3-(phenylethynyl)phenyl)oxazolidin-2-one] stands 100 to 1000 nM.

In turn, `O=C1N[C@@H](c2cccc(C#Cc3ccccc3)c2)[C@H](c2cccs2)O1` (single isomer, unassigned) [Example 105] had an EC50 of more than 30000 nM. The same measure for `O=C1N[C@H](c2cccc(C#Cc3ccccc3F)n2)[C@@H](c2ccccc2)O1` (single isomer, unassigned) [Example 14]: more than 1000 nM; for `C[C@]1(c2cncc(C#Cc3ccccc3)c2)NC(=O)O[C@H]1c1cc(F)ccc1F` (racemic) [Example 405, (+/−)-5-(2,5-Difluorophenyl)-4-methyl-4-(5-(phenylethynyl)pyridin-3-yl)oxazolidin-2-one]: less than 100 nM.

In turn, `O=C1N[C@@H](c2cccc(C#Cc3ccccn3)n2)[C@H](c2ccccc2)O1` (single isomer, unassigned) [Example 25] showed an EC50 of more than 1000 nM. The same measure for `O=C1N[C@H](c2cncc(C#Cc3cncc(F)c3)c2)[C@@H](c2ccc(F)cc2F)O1` [Example 182]: less than 100 nM; for `O=C1N[C@H](c2cccc(C#Cc3ccccc3)c2)[C@@H](c2cccnc2)O1` [Example 117, (4R,5R)-4-(3-(phenylethynyl)phenyl)-5-(pyridin-3-yl)oxazolidin-2-one]: < 100 nM and 4.7 nM; for `CC(C)(C)c1ccc(C#Cc2cncc([C@H]3NC(=O)O[C@@H]3c3cc(F)ccc3F)c2)cc1` [Example 384, (4R,5R)-4-(5-((4-tert-butylphenyl)ethynyl)pyridin-3-y1)-5-(2,5-difluorophenyl)oxazolidin-2-one]: more than 1000 nM. In turn, `COc1cccc([C@H]2OC(=O)N[C@@H]2c2cccc(C#Cc3cncc(C#N)c3)c2)c1` [Example 80, 5-((3-((4R,5R)-5-(3-Methoxyphenyl)-2-oxooxazolidin-4yl)-phenyl)ethynyl)nicotinonitrile] had an EC50 of less than 100 nM. The same measure for `COc1cccc([C@H]2OC(=O)N[C@@H]2c2cccc(C#Cc3ncc[nH]3)c2)c1` [Example 62, (4R,5R)-4-(3-((1H-imidazol-2-yl)ethnyl)phenyl)-5-(3-methoxyphenyl)oxazolidin-2-one]: more than 1000 nM; for `O=C1N[C@H](c2cccc(C#Cc3ccccc3)n2)[C@@H](c2cccc(F)c2)O1` [Example 217]: less than 100 nM; for `COc1cccc([C@@H]2OC(=O)N[C@H]2c2ccnc(C#Cc3ccccc3)c2)c1` (single isomer, unassigned) [Example 37]: less than 100 nM. The compound `C[C@@]1(c2cc(F)ccc2F)OC(=O)N[C@H]1c1cncc(C#Cc2ccccc2)c1` [Example 288] showed an EC50 of 100 to 1000 nM. The same measure for `COc1ccc(C#Cc2cncc([C@H]3NC(=O)O[C@@H]3c3cc(F)ccc3F)c2)cc1` [Example 382, (4R,5R)-5-(2,5-difluorophenyl)-4-(5-((4-methoxyphenyl)ethynyl)pyridin-3-yl)oxazolidin-2-one]: 100 to 1000 nM and 537 nM. Under `O=C1N[C@H](c2cncc(C#Cc3ccccc3)c2)[C@H](c2cccc(Cl)c2Cl)O1` (single isomer, unassigned) [Example 331] stands more than 1000 nM; under `O=C1N[C@H](c2cncc(C#Cc3cnccn3)c2)[C@@H](c2cccc(F)c2)O1` [Example 397, (4R,5R)-5-(3-Fluorophenyl)-4-(5-(pyrazin-2-ylethynyl)pyridin-3-yl)oxazolidin-2-one], less than 100 nM; under `C[C@@]1(c2cncc(C#Cc3ccccc3)c2)NC(=O)O[C@@H]1c1ccccc1` [Example 225], more than 1000 nM. The compound `O=C1N[C@H](c2cncc(C#Cc3ncccc3F)c2)[C@@H](c2ccc(F)cc2)O1` [Example 209] showed an EC50 of less than 100 nM.

Compound `O=C1N[C@H](c2cc(C#Cc3ccccc3F)ccn2)[C@@H](c2ccc(F)cc2)O1` (single isomer, unassigned) [Example 353] came in with an EC50 of less than 100 nM. `O=C1N[C@@H](c2cncc(C#Cc3ccccc3)c2)[C@H](c2cccc(Cl)c2Cl)O1` (single isomer, unassigned) [Example 329]: the EC50 was more than 1000 nM. `COc1cccc([C@H]2OC(=O)N[C@@H]2c2cccc(C#Cc3cccnc3OC)c2)c1` [Example 78, (4R,5R)-5-(3-Methoxyphenyl)-4-(3-((2-methoxypyridin-3-yl)ethynyl)phenyl)oxazolidin-2-one] yielded an EC50 of more than 1000 nM. The same measure for `O=C1N[C@@H](c2cccc(C#Cc3ccccc3)c2)[C@H](c2cccnn2)O1` [Example 242]: more than 1000 nM; for `O=C1N[C@@H](c2cccc(C#Cc3ccccc3)c2)[C@H](c2cccs2)O1` (racemic) [Example 103, trans-4-(3-(phenylethynyl)phenyl)-5-(thiophen-2-yl)oxazolidin-2-one]: less than 100 nM; for `O=C1N[C@H](c2cncc(C#Cc3ccncn3)c2)[C@@H](c2cc(F)ccc2F)O1` [Example 394, (4R,5R)-5-(2,5-difluorophenyl)-4-(5-(pyrimidin-4-ylethynyl)pyridin-3-yl)oxazolidin-2-one]: more than 1000 nM.

`O=C1N[C@H](c2cccc(C#Cc3cccnc3)c2)[C@@H](c2ccncn2)O1` [Example 241] displayed an EC50 of more than 1000 nM.

The compound `COc1cccc([C@@H]2OC(=O)N[C@H]2c2cccc(C#Cc3cccc(F)c3)c2)c1` [Example 134, (4S,5S)-4-(3-((3-fluorophenyl)ethynyl)phenyl)-5-(3-methoxyphenyl)oxazolidin-2-one] showed an EC50 of more than 1000 nM.

Consider `O=C1N[C@H](c2cncc(C#Cc3ccccc3)c2)[C@@H](c2c(F)cccc2F)O1` [Example 278], for which the EC50 is more than 1000 nM.

The compound `COc1cccc([C@H]2OC(=O)N[C@@H]2c2cccc(C#Cc3cscn3)c2)c1` [Example 68] yielded a concentration giving a half-maximal response (EC50) of less than 100 nM.

In turn, `N#Cc1cccc(C#Cc2cncc([C@H]3NC(=O)O[C@@H]3c3cc(F)ccc3F)c2)c1` [Example 188] displayed an EC50 of more than 1000 nM.

For the compound `O=C1N[C@H](c2cncc(C#Cc3cccc(C(F)(F)F)c3)c2)[C@@H](c2cc(F)ccc2F)O1` [Example 386, (4R,5R)-5-(2,5-difluorophenyl)-4-(5-((3-(trifluoromethyl)phenyl)ethynyl)pyridin-3-yl)oxazolidin-2-one], the EC50 is more than 1000 nM. In turn, `N#Cc1cccc(C#Cc2cncc([C@H]3NC(=O)O[C@@H]3c3ccc(F)cc3)c2)c1` [Example 215] registered an EC50 of less than 100 nM. The same measure for `O=C1N[C@@H](c2cccc(C#Cc3ccccc3)c2)[C@H](c2nc(-c3ccccc3)no2)O1` [Example 159]: more than 1000 nM; for `O=C1N[C@H](c2cccc(C#Cc3ccccc3)c2)[C@@H](c2ccc(F)cc2)O1` (single isomer, unassigned) [Example 114]: less than 100 nM; for `COc1cccc([C@H]2OC(=O)N[C@@H]2c2cccc(C#Cc3ccc(Cl)cc3)c2)c1` [Example 263]: more than 1000 nM. The same measure for `O=C1N[C@@H](c2cc(C#Cc3ccc(F)cc3)ccn2)[C@H](c2ccc(F)cc2)O1` (single isomer, unassigned) [Example 358]: more than 1000 nM; for `Cc1ccc([C@H]2OC(=O)N[C@@H]2c2cccc(C#Cc3ccccc3)c2)cc1C` [Example 101, (4R,5R)-5-(3,4-dimethylphenyl)-4-(3-(phenylethynyl)phenyl)oxazolidin-2-one]: less than 100 nM.

Turning to `COc1cccc([C@H]2OC(=O)N[C@@H]2c2cccc(C#Cc3ccc(F)cn3)c2)c1` [Example 195], the 50% effective concentration (EC50) was more than 1000 nM. Turning to `O=C1N[C@@H](c2cccc(C#Cc3ccccc3)c2)[C@@H](c2ccccc2)O1` [Example 97, (4S,5R)-5-phenyl-4-(3-(phenylethynyl)phenyl)oxazolidin-2-one], the EC50 was more than 1000 nM. Take `O=C1N[C@H](c2cncc(C#Cc3ccccc3)c2)[C@@H](c2cc(Cl)ccc2Cl)O1` (single isomer, unassigned) [Example 326]: the EC50 was more than 3000 nM.

`O=C1N[C@@H](c2cccc(C#Cc3ccccc3)n2)[C@H](c2c(F)cc(F)cc2F)O1` (single isomer, unassigned) [Example 314] came in with an EC50 of more than 1000 nM. The same measure for `COc1cccc([C@H]2OC(=O)N[C@@H]2c2cccc(C#Cc3ccnnc3)c2)c1` [Example 200]: more than 1000 nM; for `COc1cccc([C@H]2OC(=O)N[C@@H]2c2cccc(C#Cc3cccc(C#N)c3)c2)c1` [Example 55]: less than 100 nM.

For `C[C@]1(c2ccc(F)cc2)OC(=O)N[C@@H]1c1cncc(C#Cc2cncc(F)c2)c1` [Example 208], the EC50 was less than 100 nM. The same measure for `O=C1N[C@@H](c2cncc(C#Cc3ccccc3)c2)[C@@H](c2cccc(Cl)c2Cl)O1` (single isomer, unassigned) [Example 332]: more than 1000 nM. Under `O=C1N[C@H](c2cncc(C#Cc3ccccc3)c2)[C@H](c2ccnnc2)O1` (single isomer, unassigned) [Example 324] stands less than 100 nM. Under `O=C1N[C@H](c2cc(C#Cc3cncc(F)c3)ncc2F)[C@@H](c2ccc(F)cc2)O1` [Example 144, (4R,5R)-4-(5-Fluoro-2-((5-fluoropyridin-3-yl)ethynyl)pyridin-4-yl)-5-(4-fluorophenyl)oxazolidin-2-one] stands less than 100 nM.

Values taken from patent publication USRE49735E1 (BRISTOL-MYERS SQUIBB COMPANY, priority 2010, dated 2023).
